{"source": "PubChem BioAssay AID1963964", "about": "(Molecular Pharmacology Branch, DTP, NCI, 2024)", "system": "997726-040-R-J2-PDC tumor spheroids, viability", "assay": "Anticancer human tumor 997726-040-R-J2-PDC patient-derived squamous cell lung carcinoma cell line growth inhibition [PI3K]", "details": "spheroids with HUVEC and MSC; for pIC50: curve of first compound; for viability, T/C: stronger effect = lower value", "method_in_brief": "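Stroma-containing spheroids: tumor line, pooled-donor HUVEC, hMSC. Treatments: targeted agents with PI3K inhibitors. Dosing: clinically relevant, half-log spacing, 10 microM ceiling without known Cmax. Read-out: cell viability.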", "key": {"[1]": {"details": "second compound 0.0316 µM, first compound 0.0316 µM"}, "[2]": {"details": "second compound 0.0316 µM, first compound 0.1 µM"}, "[3]": {"details": "second compound 0.1 µM, first compound 0.0316 µM"}, "[4]": {"details": "second compound 0.1 µM, first compound 0.1 µM"}, "[5]": {"details": "second compound 0.316 µM, first compound 0.0316 µM"}, "[6]": {"details": "second compound 0.316 µM, first compound 0.1 µM"}, "[7]": {"details": "second compound 1 µM, first compound 0.0316 µM"}, "[8]": {"details": "second compound 1 µM, first compound 0.1 µM"}}, "note": "pIC50: −log10 of the molar value.", "data": [{"compound": "C=CC(=O)N1CCN(c2nc(=O)n(-c3c(C)ccnc3C(C)C)c3nc(-c4c(O)cccc4F)c(F)cc23)C(C)C1", "note": "(centres undefined) + Cc1nc(NC(=O)N2CCCC2C(N)=O)sc1-c1ccnc(C(C)(C)C(F)(F)F)c1;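 further: spheroids exposed to compounds for seven days before readout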", "values": [{"measurement": "pIC50", "setting": "second compound 0.0316 µM", "result": "< 5.00"}, {"measurement": "pIC50", "setting": "second compound 0.1 µM", "result": "< 5.00"}, {"measurement": "pIC50", "setting": "second compound 0.316 µM", "result": "< 5.00"}, {"measurement": "pIC50", "setting": "second compound 1 µM", "result": "> 7.50"}, {"measurement": "pIC50", "setting": "second compound 3.16 µM", "result": "> 7.50"}, {"measurement": "pIC50", "setting": "second compound 10 µM", "result": "> 7.50"}, {"measurement": "viability, T/C", "setting": "[1]", "result": 82.8, "unit": "%"}, {"measurement": "viability, T/C", "setting": "[2]", "result": 84.3, "unit": "%"}, {"measurement": "viability, T/C", "setting": "second compound 0.0316 µM, first compound 0.316 µM", "result": 101, "unit": "%"}, {"measurement": "viability, T/C", "setting": "second compound 0.0316 µM, first compound 1 µM", "result": 108, "unit": "%"}, {"measurement": "viability, T/C", "setting": "second compound 0.0316 µM, first compound 3.16 µM", "result": 102, "unit": "%"}, {"measurement": "viability, T/C", "setting": "second compound 0.0316 µM, first compound 10 µM", "result": 109, "unit": "%"}, {"measurement": "viability, T/C", "setting": "[3]", "result": 76.3, "unit": "%"}, {"measurement": "viability, T/C", "setting": "[4]", "result": 72.7, "unit": "%"}, {"measurement": "viability, T/C", "setting": "second compound 0.1 µM, first compound 0.316 µM", "result": 71.1, "unit": "%"}, {"measurement": "viability, T/C", "setting": "second compound 0.1 µM, first compound 1 µM", "result": 86.8, "unit": "%"}, {"measurement": "viability, T/C", "setting": "second compound 0.1 µM, first compound 3.16 µM", "result": 101, "unit": "%"}, {"measurement": "viability, T/C", "setting": "second compound 0.1 µM, first compound 10 µM", "result": 89.3, "unit": "%"}, {"measurement": "viability, T/C", "setting": "[5]", "result": 53.3, "unit": "%"}, {"measurement": "viability, T/C", "setting": "[6]", "result": 55.9, "unit": "%"}, {"measurement": "viability, T/C", "setting": "second compound 0.316 µM, first compound 0.316 µM", "result": 61, "unit": "%"}, {"measurement": "viability, T/C", "setting": "second compound 0.316 µM, first compound 1 µM", "result": 59.5, "unit": "%"}, {"measurement": "viability, T/C", "setting": "second compound 0.316 µM, first compound 3.16 µM", "result": 63.6, "unit": "%"}, {"measurement": "viability, T/C", "setting": "second compound 0.316 µM, first compound 10 µM", "result": 65.6, "unit": "%"}, {"measurement": "viability, T/C", "setting": "[7]", "result": 40.8, "unit": "%"}, {"measurement": "viability, T/C", "setting": "[8]", "result": 41.8, "unit": "%"}, {"measurement": "viability, T/C", "setting": "second compound 1 µM, first compound 0.316 µM", "result": 45, "unit": "%"}, {"measurement": "viability, T/C", "setting": "second compound 1 µM, first compound 1 µM", "result": 39.8, "unit": "%"}, {"measurement": "viability, T/C", "setting": "second compound 1 µM, first compound 3.16 µM", "result": 52, "unit": "%"}, {"measurement": "viability, T/C", "setting": "second compound 1 µM, first compound 10 µM", "result": 46.2, "unit": "%"}, {"measurement": "viability, T/C", "setting": "second compound 3.16 µM, first compound 0.0316 µM", "result": 30.9, "unit": "%"}, {"measurement": "viability, T/C", "setting": "second compound 3.16 µM, first compound 0.1 µM", "result": 28.6, "unit": "%"}, {"measurement": "viability, T/C", "setting": "second compound 3.16 µM, first compound 0.316 µM", "result": 33.6, "unit": "%"}, {"measurement": "viability, T/C", "setting": "second compound 3.16 µM, first compound 1 µM", "result": 28.6, "unit": "%"}, {"measurement": "viability, T/C", "setting": "second compound 3.16 µM, first compound 3.16 µM", "result": 34.1, "unit": "%"}, {"measurement": "viability, T/C", "setting": "second compound 3.16 µM, first compound 10 µM", "result": 32.2, "unit": "%"}, {"measurement": "viability, T/C", "setting": "second compound 10 µM, first compound 0.0316 µM", "result": 16.2, "unit": "%"}, {"measurement": "viability, T/C", "setting": "second compound 10 µM, first compound 0.1 µM", "result": 16, "unit": "%"}, {"measurement": "viability, T/C", "setting": "second compound 10 µM, first compound 0.316 µM", "result": 15.9, "unit": "%"}, {"measurement": "viability, T/C", "setting": "second compound 10 µM, first compound 1 µM", "result": 17.4, "unit": "%"}, {"measurement": "viability, T/C", "setting": "second compound 10 µM, first compound 3.16 µM", "result": 22, "unit": "%"}, {"measurement": "viability, T/C", "setting": "second compound 10 µM, first compound 10 µM", "result": 9.67, "unit": "%"}]}, {"compound": "CC(C)n1nc(-c2ccc3oc(N)nc3c2)c2c(N)ncnc21", "note": "+ CC(Nc1ccc2c(c1)OCCn1cc(N3C(=O)OCC3C(F)F)nc1-2)C(N)=O", "values": [{"measurement": "pIC50", "setting": "second compound 0.00316 µM", "result": 7.76}, {"measurement": "pIC50", "setting": "second compound 0.01 µM", "result": 7.78}, {"measurement": "pIC50", "setting": "second compound 0.0316 µM", "result": 8.49}, {"measurement": "pIC50", "setting": "second compound 0.1 µM", "result": "> 9.50"}, {"measurement": "pIC50", "setting": "second compound 0.316 µM", "result": "> 9.50"}, {"measurement": "pIC50", "setting": "second compound 1 µM", "result": "> 9.50"}, {"measurement": "viability, T/C", "setting": "second compound 0.00316 µM, first compound 0.000316 µM", "result": 79, "unit": "%"}, {"measurement": "viability, T/C", "setting": "second compound 0.00316 µM, first compound 0.001 µM", "result": 88.2, "unit": "%"}, {"measurement": "viability, T/C", "setting": "second compound 0.00316 µM, first compound 0.00316 µM", "result": 73.5, "unit": "%"}, {"measurement": "viability, T/C", "setting": "second compound 0.00316 µM, first compound 0.01 µM", "result": 59.8, "unit": "%"}, {"measurement": "viability, T/C", "setting": "second compound 0.00316 µM, first compound 0.0316 µM", "result": 38.9, "unit": "%"}, {"measurement": "viability, T/C", "setting": "second compound 0.00316 µM, first compound 0.1 µM", "result": 7.14, "unit": "%"}, {"measurement": "viability, T/C", "setting": "second compound 0.01 µM, first compound 0.000316 µM", "result": 74.8, "unit": "%"}, {"measurement": "viability, T/C", "setting": "second compound 0.01 µM, first compound 0.001 µM", "result": 68.5, "unit": "%"}, {"measurement": "viability, T/C", "setting": "second compound 0.01 µM, first compound 0.00316 µM", "result": 71.3, "unit": "%"}, {"measurement": "viability, T/C", "setting": "second compound 0.01 µM, first compound 0.01 µM", "result": 59.1, "unit": "%"}, {"measurement": "viability, T/C", "setting": "second compound 0.01 µM, first compound 0.0316 µM", "result": 37.4, "unit": "%"}, {"measurement": "viability, T/C", "setting": "second compound 0.01 µM, first compound 0.1 µM", "result": 6.85, "unit": "%"}, {"measurement": "viability, T/C", "setting": "second compound 0.0316 µM, first compound 0.000316 µM", "result": 54.6, "unit": "%"}, {"measurement": "viability, T/C", "setting": "second compound 0.0316 µM, first compound 0.001 µM", "result": 61.3, "unit": "%"}, {"measurement": "viability, T/C", "setting": "second compound 0.0316 µM, first compound 0.00316 µM", "result": 48.7, "unit": "%"}, {"measurement": "viability, T/C", "setting": "second compound 0.0316 µM, first compound 0.01 µM", "result": 38.6, "unit": "%"}, {"measurement": "viability, T/C", "setting": "[1]", "result": 26.6, "unit": "%"}, {"measurement": "viability, T/C", "setting": "[2]", "result": 6.47, "unit": "%"}, {"measurement": "viability, T/C", "setting": "second compound 0.1 µM, first compound 0.000316 µM", "result": 44.2, "unit": "%"}, {"measurement": "viability, T/C", "setting": "second compound 0.1 µM, first compound 0.001 µM", "result": 39.5, "unit": "%"}, {"measurement": "viability, T/C", "setting": "second compound 0.1 µM, first compound 0.00316 µM", "result": 42.5, "unit": "%"}, {"measurement": "viability, T/C", "setting": "second compound 0.1 µM, first compound 0.01 µM", "result": 33, "unit": "%"}, {"measurement": "viability, T/C", "setting": "[3]", "result": 20.9, "unit": "%"}, {"measurement": "viability, T/C", "setting": "[4]", "result": 4.52, "unit": "%"}, {"measurement": "viability, T/C", "setting": "second compound 0.316 µM, first compound 0.000316 µM", "result": 32.5, "unit": "%"}, {"measurement": "viability, T/C", "setting": "second compound 0.316 µM, first compound 0.001 µM", "result": 33.9, "unit": "%"}, {"measurement": "viability, T/C", "setting": "second compound 0.316 µM, first compound 0.00316 µM", "result": 27.9, "unit": "%"}, {"measurement": "viability, T/C", "setting": "second compound 0.316 µM, first compound 0.01 µM", "result": 24.9, "unit": "%"}, {"measurement": "viability, T/C", "setting": "[5]", "result": 13.5, "unit": "%"}, {"measurement": "viability, T/C", "setting": "[6]", "result": 3.29, "unit": "%"}, {"measurement": "viability, T/C", "setting": "second compound 1 µM, first compound 0.000316 µM", "result": 29.1, "unit": "%"}, {"measurement": "viability, T/C", "setting": "second compound 1 µM, first compound 0.001 µM", "result": 26.9, "unit": "%"}, {"measurement": "viability, T/C", "setting": "second compound 1 µM, first compound 0.00316 µM", "result": 21.4, "unit": "%"}, {"measurement": "viability, T/C", "setting": "second compound 1 µM, first compound 0.01 µM", "result": 20.6, "unit": "%"}, {"measurement": "viability, T/C", "setting": "[7]", "result": 9.52, "unit": "%"}, {"measurement": "viability, T/C", "setting": "[8]", "result": 2.78, "unit": "%"}]}]}
